Test results published in patent US11484539B2, “Compounds and their uses for alleviating menopause-associated symptoms” (Estetra SPRL, priority 2018, dated 2022).
Read-outs that look alike come from different tables or passages of the source. Marks after values point to notes of the source that are not given here.

What was measured:
post-menopausal women [1] = assay: Number of patients with biopsies (endometrial biopsy); type: in vivo
Protocol: If during the course of the trial, a double layer endometrial thickness ≥15 mm was detected on TVUS and/or abnormal uterine bleeding (in the judgement of the gynecologist in light of the oestrogen therapy) was reported by a non-hysterectomised person, they underwent an endometrial biopsy and was treated with progestin (10 mg dydrogesterone) QD until end of Week 11 in a sequential way (i.e., a 14 day progestin treatment period followed by a 14 day progestin treatment pause) in addition to the E4/placebo treatment. […] If an abnormal uterine bleeding occurred again after a first normal endometrial biopsy, a thorough gynaecological examination and a TVUS were performed. If necessary in the judgment of the gynecologist, a second endometrial biopsy was performed. After the E4/Placebo treatment period, all non-hysterectomised subjects (including those having received the progestin previously) received progestin therapy for 14 days with 10 mg dydrogesterone QD.
1. Number of patients with biopsies

post-menopausal women [2] = assay: Genito-urinary symptoms (GSM), VVA subject self-assessment; type: in vivo
Protocol: Change from baseline to week 12 in the following GSM symptoms (VVA subject self-assessment) were recorded: • a) Vaginal dryness (sensation of dryness or burning in the vagina; none=0 mild=1, moderate=2 or severe=3):
• b) Vaginal and/or vulvar irritation/itching (sensation of abnormal irritation or sensitive condition in the vagina; none=0, mild=1, moderate=2 or severe=3):
• c) Dysuria (sensation of pain or difficulty in urinating; none=0, mild=1, moderate=2 or severe=3):
• d) Vaginal pain associated with sexual activity (sensation of pain with sexual intercourse none=0, mild=1, moderate=2 or severe=3):
• e) Vaginal bleeding associated with sexual activity (loss of blood with sexual intercourse; presence=1 vs. absence=0): […]

post-menopausal women [3] = assay: Menopause Rating Scale (MRS), total MRS score; type: in vivo; design: key: 0 = asymptomatic, 44 = highest degree of complaints
Source text: As used herein, the terms “Quality of Life” (and the abbreviation “QoL”) refers to a parameter which can be assessed, for example, by using questionnaires, such as, by way of example and not limitation, the “Menopause Rating Scale” questionnaire (Heinemann et al., 2003, “International versions of the Menopause Rating Scale (MRS)” Health Qual Life Outcomes 1: 28; Heinemann et al., 2004, “The Menopause Rating Scale (MRS) scale: A methodological review”. Health Qual Life Outcomes 2: 45; Heinemann et al., 2004, “The Menopause Rating Scale (MRS) as outcome measure for hormone treatment? A validation study”. Health Qual Life Outcomes 2:67; as further detailed below in Example 1 Section C.) or the MENQOL questionnaire (The Menopause-specific Quality of Life (MENQOL) questionnaire, Hilditch et al.; Maturitas 1996; A menopause-specific quality of life questionnaire: development and psychometric properties; 24(3); p. 161-175).
The Menopause Rating Scale (MRS) is a health-related quality of life scale allowing the measure of severity of age-/menopause-related complaints by rating a profile of symptoms (Heinemann et al., 2003, “International versions of the Menopause Rating Scale (MRS)” Health Qual Life Outcomes 1: 28; Heinemann et al., 2004, “The Menopause Rating Scale (MRS) scale: A methodological review”. Health Qual Life Outcomes 2: 45; Heinemann et al., 2004, “The Menopause Rating Scale (MRS) as outcome measure for hormone treatment? A validation study”. Health Qual Life Outcomes 2:67).
The score increases point by point with increasing severity of subjectively perceived complaints in each one of 11 items (severity expressed in 0 to 4 points in each item). By checking these 5 possible boxes of “severity” for each of the items in the questionnaire, the respondent provides their personal perception. The total MRS score ranges between 0 (asymptomatic) to 44 (highest degree of complaints). The minimal/maximal scores vary between three dimensions depending on the number of complaints allocated to the respective dimension of symptoms (Heinemann et al., 2003, Health Qual Life Outcomes 1: 28): • 1. psychological symptoms: 0 to 16 scoring points (4 symptoms: depressed, irritable, anxious, exhausted); • 2. somato-vegetative symptoms: 0 to 16 points (4 symptoms: sweating/flush, cardiac complaints, sleeping disorders, joint & muscle complaints); • 3. urogenital symptoms: 0 to 12 points (3 symptoms: sexual problems, urinary complaints, vaginal dryness).

postmenopausal women = conditions: cited from earlier work
post-menopausal women [4] = assay: Patients leaving the study; type: in vivo
Source text: 3. Patients leaving the study

C[C@]12CC[C@@H]3c4ccc(O)cc4CC[C@H]3[C@@H]1[C@@H](O)[C@@H](O)[C@@H]2O [E4, 1,3,5 (10)-estratrien-3,15alpha,16alpha,17beta-tetrol]
Number of patients with biopsies (post-menopausal women [1]; 2.5 mg): 4
Number of patients with biopsies (post-menopausal women [1]; 5 mg): 5
Number of patients with biopsies (post-menopausal women [1]; 10 mg): 11
Number of patients with biopsies (post-menopausal women [1]; 15 mg): 9
Requirements for biopsies compared with the 10 mg per day group (post-menopausal women [1]; 15 mg per day group): less requirements for biopsies
Dysuria score (none=0, mild=1, moderate=2, severe=3), mean ± SD (post-menopausal women [2]; 2.5 mg, Baseline): 0.2 ± 0.56
Vaginal and/or vulvar irritation/itching score (none=0, mild=1, moderate=2, severe=3), mean ± SD (post-menopausal women [2]; 2.5 mg, Baseline): 0.7 ± 0.96
Vaginal bleeding associated with sexual activity, Absence (%) (post-menopausal women [2]; 2.5 mg, Baseline): 100%
Vaginal bleeding associated with sexual activity, Presence (%) (post-menopausal women [2]; 2.5 mg, Baseline): 0%
Vaginal dryness score (none=0, mild=1, moderate=2, severe=3), mean ± SD (post-menopausal women [2]; 2.5 mg, Baseline): 1 ± 0.90
Vaginal pain associated with sexual activity score (none=0, mild=1, moderate=2, severe=3), mean ± SD (post-menopausal women [2]; 2.5 mg, Baseline): 0.6 ± 0.77
Dysuria score (none=0, mild=1, moderate=2, severe=3), mean ± SD (post-menopausal women [2]; 2.5 mg, Week 12): 0 ± 0.19
Vaginal and/or vulvar irritation/itching score (none=0, mild=1, moderate=2, severe=3), mean ± SD (post-menopausal women [2]; 2.5 mg, Week 12): 0.3 ± 0.60
Vaginal bleeding associated with sexual activity, Absence (%) (post-menopausal women [2]; 2.5 mg, Week 12): 100%
Vaginal bleeding associated with sexual activity, Presence (%) (post-menopausal women [2]; 2.5 mg, Week 12): 0%
Vaginal dryness score (none=0, mild=1, moderate=2, severe=3), mean ± SD (post-menopausal women [2]; 2.5 mg, Week 12): 0.5 ± 0.77
Vaginal pain associated with sexual activity score (none=0, mild=1, moderate=2, severe=3), mean ± SD (post-menopausal women [2]; 2.5 mg, Week 12): 0.3 ± 0.73
Dysuria score (none=0, mild=1, moderate=2, severe=3), mean ± SD (post-menopausal women [2]; 5 mg, Baseline): 0.2 ± 0.56
Vaginal and/or vulvar irritation/itching score (none=0, mild=1, moderate=2, severe=3), mean ± SD (post-menopausal women [2]; 5 mg, Baseline): 0.6 ± 0.90
Vaginal bleeding associated with sexual activity, Presence (%) (post-menopausal women [2]; 5 mg, Baseline): 6.4%
Vaginal dryness score (none=0, mild=1, moderate=2, severe=3), mean ± SD (post-menopausal women [2]; 5 mg, Baseline): 1.3 ± 0.94
Vaginal pain associated with sexual activity score (none=0, mild=1, moderate=2, severe=3), mean ± SD (post-menopausal women [2]; 5 mg, Baseline): 1 ± 1.07
Vaginal bleeding associated with sexual activity, Absence (%) (post-menopausal women [2]; 5 mg, Baseline, some patients had no sexual activity): 91.5^# %
Dysuria score (none=0, mild=1, moderate=2, severe=3), mean ± SD (post-menopausal women [2]; 5 mg, Week 12): 0 ± 0.20
Vaginal and/or vulvar irritation/itching score (none=0, mild=1, moderate=2, severe=3), mean ± SD (post-menopausal women [2]; 5 mg, Week 12): 0.4 ± 0.65
Vaginal bleeding associated with sexual activity, Absence (%) (post-menopausal women [2]; 5 mg, Week 12): 100%
Vaginal bleeding associated with sexual activity, Presence (%) (post-menopausal women [2]; 5 mg, Week 12): 0%
Vaginal dryness score (none=0, mild=1, moderate=2, severe=3), mean ± SD (post-menopausal women [2]; 5 mg, Week 12): 0.7 ± 0.86
Vaginal pain associated with sexual activity score (none=0, mild=1, moderate=2, severe=3), mean ± SD (post-menopausal women [2]; 5 mg, Week 12): 0.5 ± 0.78
Dysuria score (none=0, mild=1, moderate=2, severe=3), mean ± SD (post-menopausal women [2]; 10 mg, Baseline): 0.2 ± 0.58
Vaginal and/or vulvar irritation/itching score (none=0, mild=1, moderate=2, severe=3), mean ± SD (post-menopausal women [2]; 10 mg, Baseline): 0.7 ± 0.87
Vaginal bleeding associated with sexual activity, Absence (%) (post-menopausal women [2]; 10 mg, Baseline): 100%
Vaginal bleeding associated with sexual activity, Presence (%) (post-menopausal women [2]; 10 mg, Baseline): 0%
Vaginal dryness score (none=0, mild=1, moderate=2, severe=3), mean ± SD (post-menopausal women [2]; 10 mg, Baseline): 1 ± 0.93
Vaginal pain associated with sexual activity score (none=0, mild=1, moderate=2, severe=3), mean ± SD (post-menopausal women [2]; 10 mg, Baseline): 0.6 ± 0.77
Dysuria score (none=0, mild=1, moderate=2, severe=3), mean ± SD (post-menopausal women [2]; 10 mg, Week 12): 0.1 ± 0.23
Vaginal and/or vulvar irritation/itching score (none=0, mild=1, moderate=2, severe=3), mean ± SD (post-menopausal women [2]; 10 mg, Week 12): 0.3 ± 0.64
Vaginal bleeding associated with sexual activity, Absence (%) (post-menopausal women [2]; 10 mg, Week 12): 100%
Vaginal bleeding associated with sexual activity, Presence (%) (post-menopausal women [2]; 10 mg, Week 12): 0%
Vaginal dryness score (none=0, mild=1, moderate=2, severe=3), mean ± SD (post-menopausal women [2]; 10 mg, Week 12): 0.5 ± 0.75
Vaginal pain associated with sexual activity score (none=0, mild=1, moderate=2, severe=3), mean ± SD (post-menopausal women [2]; 10 mg, Week 12): 0.2 ± 0.36
Dysuria score (none=0, mild=1, moderate=2, severe=3), mean ± SD (post-menopausal women [2]; 15 mg, Baseline): 0.3 ± 0.58
Vaginal and/or vulvar irritation/itching score (none=0, mild=1, moderate=2, severe=3), mean ± SD (post-menopausal women [2]; 15 mg, Baseline): 0.5 ± 0.85
Vaginal bleeding associated with sexual activity, Presence (%) (post-menopausal women [2]; 15 mg, Baseline): 0%
Vaginal dryness score (none=0, mild=1, moderate=2, severe=3), mean ± SD (post-menopausal women [2]; 15 mg, Baseline): 1.1 ± 1.04
Vaginal pain associated with sexual activity score (none=0, mild=1, moderate=2, severe=3), mean ± SD (post-menopausal women [2]; 15 mg, Baseline): 0.7 ± 0.90
Vaginal bleeding associated with sexual activity, Absence (%) (post-menopausal women [2]; 15 mg, Baseline, some patients had no sexual activity): 97.9^# %
Dysuria score (none=0, mild=1, moderate=2, severe=3), mean ± SD (post-menopausal women [2]; 15 mg, Week 12): 0.3 ± 0.61
Vaginal and/or vulvar irritation/itching score (none=0, mild=1, moderate=2, severe=3), mean ± SD (post-menopausal women [2]; 15 mg, Week 12): 0.4 ± 0.70
Vaginal bleeding associated with sexual activity, Absence (%) (post-menopausal women [2]; 15 mg, Week 12): 95.8%
Vaginal bleeding associated with sexual activity, Presence (%) (post-menopausal women [2]; 15 mg, Week 12): 4.2%
Vaginal dryness score (none=0, mild=1, moderate=2, severe=3), mean ± SD (post-menopausal women [2]; 15 mg, Week 12): 0.5 ± 0.68
Vaginal pain associated with sexual activity score (none=0, mild=1, moderate=2, severe=3), mean ± SD (post-menopausal women [2]; 15 mg, Week 12): 0.3 ± 0.54
Total MRS Score, Mean (post-menopausal women [3]; 2.5 mg, Baseline): 16.5
Total MRS Score, Mean (post-menopausal women [3]; 2.5 mg, Week 12): 9.5
Total MRS Score, Mean (post-menopausal women [3]; 2.5 mg, week 4): 10.3
Total MRS Score, Mean (post-menopausal women [3]; 5 mg, Baseline): 16.5
Total MRS Score, Mean (post-menopausal women [3]; 5 mg, Week 12): 11.0
Total MRS Score, Mean (post-menopausal women [3]; 5 mg, week 4): 10.5
Total MRS Score, Mean (post-menopausal women [3]; 10 mg, Baseline): 17.6
Total MRS Score, Mean (post-menopausal women [3]; 10 mg, Week 12): 9.7
Total MRS Score, Mean (post-menopausal women [3]; 10 mg, week 4): 11.7
Total MRS Score, Mean (post-menopausal women [3]; 15 mg, Baseline): 16.4
Total MRS Score, Mean (post-menopausal women [3]; 15 mg, Week 12): 8.1
Total MRS Score, Mean (post-menopausal women [3]; 15 mg, week 4): 8.7
Endometrial thickness (postmenopausal women; 2 mg estetrol group): stable
Mean number of hot flushes and sweating (postmenopausal women; 2 mg estetrol per day): decrease
Endometrial thickness (postmenopausal women; 10 mg estetrol group): increasing
Number of patients leaving the study (post-menopausal women [4]; 2.5 mg): 9
Number of patients leaving the study (post-menopausal women [4]; 5 mg): 11
Number of patients leaving the study (post-menopausal women [4]; 10 mg): 15
Number of patients leaving the study (post-menopausal women [4]; 15 mg): 8
